How the values were obtained:
[1] = Evaluation of pharmacokinetics of the compound in mice; type: in vivo; conditions: male, mouse, plasma, Balb/c mice
Description: Assay Example 2: Evaluation of Pharmacokinetics of the Compound
Object of the assay: to test the pharmacokinetics of the compound in mice in vivo.
Balb/c mice (male, 18-22 g, 6-8 weeks old, from Shanghai SLAC)
The pharmacokinetic profile of the compound after intravenous injection and oral administration in the rodents was tested by the standard protocol. The candidate compound was formulated into a corresponding solution, and administered through a single intravenous injection (1.0 mg/kg, 5% of DMSO/95% of 20% hydroxypropyl-beta-cyclodextrin) or an intragastric administration (1.0 mg/kg, 0.5% of methylcellulose MC4000). The whole blood sample was collected within 24 hours, and centrifuged at 3000 g for 15 minutes. […] The resulting mixture was centrifuged and the supernatant was taken out, to which an equal volume of water was added and centrifuged. The supernatant was taken out, and injected as a sample to quantitatively analyze the plasma drug concentration by LC-MS/MS analysis method. The pharmacokinetic parameters were calculated, such as peak concentration, peak time, clearance rate, half-life, area under the drug-time curve, bioavailability, etc.

[2] = tested on: GHSV-UL 46 strain of herpes simplex virus-1 (HSV-1); assay: Assay of cytopathic effect (CPE) of herpes simplex virus-1 in Vero E6 cells; type: cell-based; conditions: Human alphaherpesvirus 1, Vero C1008, 120 h, read-out: HSV-1 Cytopathic Assay EC50
Description: Assay Example 1: Assay of Cytopathic Effect of Herpes Simplex Virus-1 (Evaluation In Vitro)
The assay of cytopathic effect (CPE) was used to determine the antiviral activity of the compound against the GHSV-UL 46 strain of herpes simplex virus-1 (HSV-1).
Virus: HSV-1 GHSV-UL46, ATCC #VR-1544
Cell: African green monkey kidney cell, Vero E6, donated by Wuhan Instititute of Virology, Chinese Academy of Sciences.
Cell growth medium: 500 ml of DMEM medium+50 ml of fetal bovine serum+5 ml of double antibody+5 ml of non-essential amino acids.
Medium for the assay of cytopathic effect: 500 ml of DMEM medium+10 ml of fetal bovine serum+5 ml of double antibody+5 ml of non-essential amino acids.
1.4. […]
2.2. […] Each test compound was measured at 8 concentrations in duplicate. […]
3.4. The absorbance value of each well of the cell plate was read with a microplate reader at a wavelength of 450 nm, and 630 nm was used as a reference wavelength. The value of raw data was the absorbance at 450 nm minus the absorbance at 630 nm (raw data=OD450−OD630).
4.1. The antiviral activity of the test compound (% Inhibition) was calculated using the following equation:
[formula] wherein sample is the absorbance value of compound test wells, cell control is the average absorbance value of cell control wells, and virus control is the average absorbance value of virus control wells. […]

[3] = Hygroscopicity study by dynamic vapor sorption (DVS); type: physicochemical; conditions: 25° C. and 80% RH
Description: Dynamic Vapor Sorption (DVS) Method Used in the Present Disclosure
Instrument model: SMS DVS Advantage dynamic vapor sorption apparatus
Test condition: The sample (10˜15 mg) was taken and put into a DVS sample pan for testing.
The detailed DVS parameters were as follows:
Equilibration: dm/dt=0.01%/min (The shortest time: 10 min, and the longest time: 180 min)
Drying: Dried for 120 min at 0% RH
RH (%) test gradient: 10%
Range of RH (%) test gradient: 0%-90%-0%
The classification of hygroscopicity evaluation was as follows:
Example 4: Study on the Hygroscopicity of the Crystal Form B of the Compound of Formula (II)
SMS DVS Advantage dynamic vapor sorption apparatus
10-15 mg of the crystal form B of the compound of formula (II) was taken and put into a DVS sample pan for testing.

SMILES | bioavailability ([1]; intragastric (oral) administration 1.0 mg/kg, read-out: Bioavailability F) [%] | AUC ([1]; intragastric (oral) administration 1.0 mg/kg, read-out: Concentration integral AUC) [µM·h] | clearance ([1]; single intravenous injection 1.0 mg/kg, read-out: Clearance rate) [mL/min/kg] | half-life ([1]; single intravenous injection 1.0 mg/kg, read-out: Half-life T1/2 (converted)) [h] | EC50 [2] [nM] | Classification of hygroscopicity [3] | Weight increase by moisture absorption ΔW [3] [%]
Cc1nc(N(C)C(=O)[C@@H]2Cc3ccc(-c4ccccn4)cc3C2)sc1S(N)(=O)=O [Compound of formula (I)] | 75 | 24.4 | 1.2 | 6 | 7 | – | –
CS(=O)(=O)O.Cc1nc(N(C)C(=O)[C@@H]2Cc3ccc(-c4ccccn4)cc3C2)sc1S(N)(=O)=O | – | – | – | – | – | slightly hygroscopic | 1.158

Source: patent publication US11964969B2, “Crystal forms of thiazole compound and application thereof” (PHAENO THERAPEUTICS CO., LTD, priority 2018, dated 2024)
